Values joined by “and” are separate entries in the source; they are usually repeats but may differ in a detail not shown here. Equal entries are not always repeated. Records with an inconclusive call do not appear. Active and inactive are the calls of the source.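 How the source made its calls: active means fitted half-maximal concentration of signal decrease at or below twice the sample's top tested concentration; inconclusive means flat curve between -70 and -30 percent, or poor fit; inactive means flat within 30 percent, signal rise, or potency above limit.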

The assay addresses T. gondii ME49Luc in IFN-y HeLa, luciferase, 72 h. The assay is described as follows: inhibitors of Toxoplasma growth in IFN-γ-primed HeLa – cell-based, ME49Luc, luciferase, 72 h, dose response (AID 1259418).
For orientation: AC50 means the midpoint of the concentration-response curve, whichever way the signal moves. As for `CCC(=O)N1CC[C@@H]2[C@H]1c1cc(C#Cc3ccccc3F)ccc1N[C@@H]2CO`, the AC50 is 29.2 µM. On to `O=C(Nc1ccc(F)cc1)N1CC(=O)N2[C@@H](CO)[C@@H](c3ccc(-c4cccc(F)c4)cc3)[C@@H]2C1`, for which the AC50 was 18.5 µM. Consider `Fc1cccc(CSc2nc(NC3CCCCC3)c3ccccc3n2)c1`, for which the AC50 was > 39 µM (inactive). On to `Cn1cnc(S(=O)(=O)N2CCCCN3[C@H](CO)[C@H](c4ccc(C5=CCCCC5)cc4)[C@@H]3C2)c1`, for which the AC50 was 18.4 µM and 20.2 µM. For `O=C(NCCc1csc(-c2ccccc2)n1)C1CCN(S(=O)(=O)c2cccc(Cl)c2)CC1`, the AC50 was > 39 µM (inactive). On to `O=C(CC1CC1)N1CC[C@@H]2[C@@H](CO)Nc3ccc(-c4ccc(F)cc4)cc3[C@@H]21`, for which the AC50 was 21.1 µM. The figure for `COc1ccc(-c2ccc(C3[C@@H]4CN(C(=O)c5ccc(F)cc5)C[C@H]3N4)cc2)cc1` (some centres undefined) is 15.8 µM and 11.3 µM; for `Cc1ccc(C)c(NC(=O)N2CCN(Cc3nc(-c4cccc(Cl)c4)oc3C)CC2)c1` it is > 39 µM (inactive); for `Cc1ccc(-c2nc(CN(c3ccccc3C)S(=O)(=O)c3cccs3)c(C)o2)cc1` it is 9.63 µM. `COc1ccc(-c2nc(N(CCCN3CCOCC3)Cc3ccco3)c3ccccc3n2)cc1`: the AC50 was 9.51 µM. Regarding `COc1ccc(CNC2=NCCNC23CCN(S(=O)(=O)c2ccc(C)cc2C)CC3)cc1`, the AC50 was 18.6 µM. Turning to `N#Cc1cccc(-c2ccc3c(c2)[C@@H]2[C@@H](CCN2S(=O)(=O)c2ccc(F)cc2)[C@H](CO)N3)c1`, the AC50 is 17.8 µM. As for `CCc1ccc(S(=O)(=O)Nc2ccc(-c3nc(-c4ccc(C)cc4C)co3)cc2)cc1`, the AC50 is 8.52 µM.

For the molecule `COC(=O)C[C@H]1CC[C@@H]2[C@H](COc3ccc(NC(=O)Nc4cccc(C#N)c4)cc3C(=O)N2C)O1`, the AC50 is 19.5 µM. With `CCC[C@@]1(CCc2ccccc2)CC(=O)C([C@H](CC)c2cccc(NS(=O)(=O)c3ccc(C(F)(F)F)cn3)c2)C(=O)O1` (some centres undefined), the AC50 is 17.3 µM. As to `Cc1cccc(-c2ccc([C@H]3[C@@H](CO)N4CCCCN(S(=O)(=O)c5ccccc5F)C[C@H]34)cc2)c1`, the AC50 was 16.9 µM and 13.6 µM. In the case of `CCS(=O)(=O)N1CCc2nc(-c3cccc(F)c3)nc(NC3CC3)c2C1`, the AC50 was 31.4 µM. Turning to `COc1cccc(S(=O)(=O)N2CCCCN3[C@H](CO)[C@H](c4ccc(C#CC5CC5)cc4)[C@H]3C2)c1`, the AC50 is 10.8 µM and 2.78 µM. With `Cc1cccc(CNC2=NCCNC23CCN(S(=O)(=O)c2ccc4c(c2)CCCC4)CC3)c1`, the AC50 was 5.08 µM.

Consider `COc1ccc(-c2nc(NC(C)C)c3ccccc3n2)cc1`, for which the AC50 was > 39 µM (inactive). The figure for `COc1ccc(CN2C[C@@H]3C[C@H](C(=O)Nc4ccccc4)[C@@H](C2)O3)cc1` is > 39 µM (inactive); for `N#C[C@H]1[C@H](c2ccc(-c3cccc(F)c3)cc2)[C@@H](CO)N1C(=O)NC1CCCC1` it is 16.7 µM; for `CC(C)CC#Cc1ccc([C@@H]2[C@@H](CO)N3CCCCN(C(=O)Nc4ccccc4)C[C@@H]23)cc1` it is 22.5 µM and 15.4 µM. The figure for `COc1ccc(-c2nc(CN(c3ccccc3OC)S(=O)(=O)c3ccc(OC)cc3)c(C)o2)cc1` is 5.84 µM.

These data come from PubChem BioAssay AID1259418 (Broad Institute, 2018).
